Reference: the NIST ThermoML archive (doi:10.1021/je700591h)
Numbers after ± are expanded uncertainties.

Conditions: Crystal

Normal melting temperature: 18.51 ± 6 °C
SMILES: C[S+](C)[O-] [dimethyl sulfoxide]
